Usually pIC50 stands for the negative decadic logarithm of the IC50, by convention in mol/L. A high value points to a small IC50.

The values below come from ChEMBL document CHEMBL1155595, “Inhibition of T-lymphocyte proliferation by cucurbitacins from Picrorhiza scrophulariaeflora” (J Nat Prod, 2000).

pIC50: −log10 of the molar value. Where only a bound is given, the exact number is not on record here.

Data set [1] is described as follows: Cytotoxicity against human peripheral blood lymphocytes assessed as LDH release upto 50 uM after 24 hrs. The note with it: pbl. (LDH in the medium is a marker of cell lysis.)
A short description of data set [2]: Cytotoxicity against human peripheral blood lymphocytes at <60 uM after 4 days by CFDA/PI labeling assay. The note with it: pbl, 96 h.
Data set [3] in a line: Inhibition of phytohemagglutininin A-induced T-cell proliferation in human peripheral blood lymphocytes after 4 days by MTT assay. The data set is classed as functional, cell-based. The note with it: PBL, 96 h. On the technique in general: Formazan colour is commonly taken as a measure of viable cells.

As to `CC(C)(O)/C=C/C(=O)[C@@](C)(O)[C@H]1[C@H](O)C[C@@]2(C)[C@@H]3CC=C4[C@@H](C[C@H](O)[C@H](O)C4(C)C)[C@]3(C)CC[C@]12C` [DEACETYLPICRACIN], the Activity result is on record as “Non-toxic” in data set [1] and below 10% in data set [2]. In addition, in data set [3], the pIC50 is 6.00.
Consider `CC(=O)OC(C)(C)/C=C/C(=O)[C@@](C)(O)[C@H]1[C@H](O)C[C@@]2(C)[C@@H]3CC=C4[C@@H](C[C@H](O)[C@H](O)C4(C)C)[C@]3(C)CC[C@]12C` [PICRACIN], for which the Activity result in data set [1] is reported as “Non-toxic”; in data set [2] it was below 10%. Moreover, the pIC50 in data set [3] was 6.00.
